Patent US9476099B2 (TRUSTEES OF DARTMOUTH COLLEGE, priority 2012, dated 2016)

System: NT2/D1-R1 control and DNMT3B knockdown cells
Experiment: Genome-wide expression analysis with PAM clusters, control and DNMT3B knockdown cells (Tables 8-14)
Settings: 10 nM, 3 days; NT2/D1-R1

Nc1ncn([C@H]2C[C@H](O)[C@@H](CO)O2)c(=O)n1 [decitabine, 5-aza-deoxycytidine]
Cluster 1: genes down-regulated by low dose decitabine in control cells but not in DNMT3B knockdown cells: 129 genes
Cluster 2: genes induced by decitabine only in control cells and not in sh-DNMT3B cells: 337 genes
